Experimental data from the NIST ThermoML archive (doi:10.1021/je060084c).

How the values were obtained:
[1] = xn = mol fraction of the nth substance listed; conditions: 298.15 K; for mass density: 101 kPa, Liquid
[2] = refractive index (Na D-line) (dimensionless); xn = mol fraction of the nth substance listed; conditions: 298.15 K, 101 kPa, Liquid, Standard Abbe refractometry
[3] = 298.15 K; for mass density: 101.33 kPa, Liquid
[4] = refractive index (Na D-line) (dimensionless); conditions: 298.15 K; 101.33 kPa; Liquid; Standard Abbe refractometry

CCC(=O)O [propanoic acid] + O
Conditions	mass density, [1] [kg/m3]	refractive index, [2]	surface tension liquid-gas, [1] [mN/m]
x1 = 0.0008	997.47	1.33292	68.52
x1 = 0.0016	997.64	1.33304	66.47
x1 = 0.0029	998.15	1.33367	63.66
x1 = 0.0044	998.68	1.33422	60.98
x1 = 0.0064	999.29	1.33485	57.91
x1 = 0.0103	1000.6	1.33606	53.54
x1 = 0.0179	1002.71	1.3385	48.16
x1 = 0.0272	1005.51	1.34145	44.12
x1 = 0.047	1006.86	1.34689	38.89
x1 = 0.0618	1008.97	1.35074	36.93
x1 = 0.0989	1017.17	1.35796	34.71
x1 = 0.2016	1022.07	1.37093	32.25
x1 = 0.3008	1021.51	1.3784	31.12
x1 = 0.4003	1018.87	1.38294	30.19
x1 = 0.5009	1014.33	1.38564	29.36
x1 = 0.6039	1010.12	1.3869	28.56
x1 = 0.702	1005.03	1.38721	27.91
x1 = 0.7666	1002.83	1.38709	27.52
x1 = 0.8784	996.68	1.38599	26.92

CC(=O)O [acetic acid]
Conditions	mass density [kg/m3]	refractive index	surface tension liquid-gas [mN/m]
[3]	1043.95	–	27.08
[4]	–	1.36969	–

O=CO [formic acid] + O
Conditions	mass density, [1] [kg/m3]	refractive index, [2]	surface tension liquid-gas, [1] [mN/m]
x1 = 0.0007	997.52	1.33265	71.48
x1 = 0.0015	998.02	1.33269	71.14
x1 = 0.0028	998.79	1.33271	70.65
x1 = 0.0067	1001.27	1.33343	69.45
x1 = 0.0106	1003.6	1.3344	68.59
x1 = 0.0154	1006.31	1.33496	67.53
x1 = 0.0277	1013.84	1.33633	65.46
x1 = 0.0442	–	–	63.13
x1 = 0.0538	1026.93	1.33912	–
x1 = 0.0755	–	–	59.92
x1 = 0.1098	1052.76	1.34454	57.29
x1 = 0.1539	1069.49	1.34829	55.23
x1 = 0.204	1086.51	1.35223	52.74
x1 = 0.3004	1114.3	1.35863	49.18
x1 = 0.4178	1141.55	1.36478	47.25
x1 = 0.5101	1158.59	1.36885	45.73
x1 = 0.6133	1174.83	1.3722	43.41
x1 = 0.7058	1187.06	1.37444	41.42
x1 = 0.8162	1198.4	1.37543	40.12
x1 = 0.8967	1204.13	1.37543	39.13

CCC(=O)O [propanoic acid]
Conditions	mass density [kg/m3]	refractive index	surface tension liquid-gas [mN/m]
[3]	988.33	–	26.15
[4]	–	1.38484	–

CC(=O)O [acetic acid] + O
Conditions	mass density, [1] [kg/m3]	refractive index, [2]	surface tension liquid-gas, [1] [mN/m]
x1 = 0.0001	–	–	71.79
x1 = 0.0005	–	–	71.18
x1 = 0.0007	997.41	1.33285	71.04
x1 = 0.0008	–	–	70.84
x1 = 0.0012	997.88	1.33312	70.37
x1 = 0.006	998.92	1.33422	66.17
x1 = 0.0066	–	–	65.76
x1 = 0.0119	1000.78	1.33576	62.57
x1 = 0.0138	–	–	61.57
x1 = 0.0234	–	–	58.26
x1 = 0.0257	1004.39	1.33874	57.45
x1 = 0.0404	–	–	53.14
x1 = 0.0516	1011.91	1.34364	50.64
x1 = 0.0746	–	–	47.25
x1 = 0.1086	–	–	43.43
x1 = 0.1108	1031.57	1.35281	43.39
x1 = 0.1513	1040.9	1.35708	40.12
x1 = 0.1814	1046.55	1.36009	39.24
x1 = 0.2288	1052.46	1.36386	38.17
x1 = 0.3053	1058.74	1.36818	36.5
x1 = 0.4129	1063.49	1.3723	34.8
x1 = 0.516	1064.54	1.37456	33.23
x1 = 0.6068	1063.64	1.37543	31.87
x1 = 0.7035	1061.07	1.37543	30.32
x1 = 0.8067	1057	1.37459	29.32
x1 = 0.9076	1051.89	1.37257	28.42

O=CO [formic acid]
Conditions	mass density [kg/m3]	refractive index	surface tension liquid-gas [mN/m]
[3]	1211.29	–	38.17
[4]	–	1.37459	–

CCCC(=O)O [butanoic acid] + O
Conditions	mass density, [1] [kg/m3]	refractive index, [2]	surface tension liquid-gas, [1] [mN/m]
x1 = 4e-05	997.14	1.33256	71.12
x1 = 0.0001	997.28	1.33259	70.47
x1 = 0.0006	997.35	1.33282	66.32
x1 = 0.0016	997.39	1.33325	60.32
x1 = 0.0028	–	–	55.12
x1 = 0.0056	998.24	1.33514	46.34
x1 = 0.0075	–	–	42.12
x1 = 0.0136	999.83	1.33877	35.88
x1 = 0.0201	1000.84	1.34064	31.94
x1 = 0.0299	1001.79	1.34506	29.24
x1 = 0.048	1001.61	1.35064	28.48
x1 = 0.0596	1000.55	1.35359	28.35
x1 = 0.0865	998.76	1.35959	28.23
x1 = 0.1034	997.68	1.36283	28.15
x1 = 0.2033	992.5	1.37695	27.92
x1 = 0.2997	987.71	1.38524	27.73
x1 = 0.381	983.12	1.38923	27.66
x1 = 0.5038	977.2	1.3933	27.56
x1 = 0.5763	973.62	1.39471	27.42
x1 = 0.7036	967.47	1.39625	27.13
x1 = 0.8019	962.35	1.39667	26.9
x1 = 0.9189	957.18	1.39654	26.51

CCCC(=O)O [butanoic acid]
Conditions	mass density [kg/m3]	refractive index	surface tension liquid-gas [mN/m]
[3]	953.17	–	26.19
[4]	–	1.39599	–
